According to ChEMBL document CHEMBL1123668, “Inhibition of aspartic proteinases by peptides containing lysine and ornithine side-chain analogues of statine” (J Med Chem, 1987):
pKi: −log10 of the molar value. Square brackets hold non-standard residues; d marks the D form. Peptide text beside a SMILES is read from it. * marks the point of attachment. ξ: configuration not given here. Sta = CC(C)C[C@H](N)[C@@H](O)CC(=O)O; Isovaleryl = CC(C)CC(=O)*; ξF = NC(Cc1ccccc1)C(=O)O

Assays:
Rhizopuspepsin = molecular target: T1, Rhizopuspepsin (Rhizopus microsporus var. chinensis, UniProt P06026); assay: Inhibition of Rhizopus chinensis pepsin
T1 sequence (P06026 whole entry): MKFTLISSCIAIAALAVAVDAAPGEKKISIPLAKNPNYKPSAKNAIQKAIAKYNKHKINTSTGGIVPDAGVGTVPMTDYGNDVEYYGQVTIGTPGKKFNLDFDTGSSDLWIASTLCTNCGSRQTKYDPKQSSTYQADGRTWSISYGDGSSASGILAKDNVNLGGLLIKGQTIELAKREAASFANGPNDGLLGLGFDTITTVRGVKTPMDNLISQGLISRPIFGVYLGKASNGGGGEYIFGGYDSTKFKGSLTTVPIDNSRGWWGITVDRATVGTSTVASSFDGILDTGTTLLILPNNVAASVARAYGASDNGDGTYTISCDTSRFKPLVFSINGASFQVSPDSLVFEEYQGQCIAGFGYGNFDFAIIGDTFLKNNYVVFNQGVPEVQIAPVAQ

[1] = Compound was evaluated for the inhibition of porcine penicillopepsin
Pepsin A = Pepsin A (Sus scrofa, UniProt P00791); assay: Compound was evaluated for the inhibition of porcine pepsin
Sequence of Pepsin A (P00791 whole entry): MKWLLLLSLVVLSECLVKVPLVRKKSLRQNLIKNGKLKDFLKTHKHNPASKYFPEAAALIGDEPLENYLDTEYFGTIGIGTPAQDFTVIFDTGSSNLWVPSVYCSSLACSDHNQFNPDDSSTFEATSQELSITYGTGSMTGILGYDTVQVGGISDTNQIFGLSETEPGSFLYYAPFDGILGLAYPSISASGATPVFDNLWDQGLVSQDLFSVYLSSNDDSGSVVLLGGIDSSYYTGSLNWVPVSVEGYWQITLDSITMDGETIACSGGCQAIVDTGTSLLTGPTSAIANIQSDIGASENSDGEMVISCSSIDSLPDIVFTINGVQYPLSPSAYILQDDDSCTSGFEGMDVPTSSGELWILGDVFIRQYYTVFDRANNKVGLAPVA

[2] = Compound was evaluated for the inhibition of […] penicillopepsin; Value is time-dependent inhibition (TDI) with T1/2 > 30 s)
[3] = Compound was evaluated for the inhibition of […] penicillopepsin; ( Value is time-dependent inhibition (TDI) with T1/2 > 30 s.)

CCOC(=O)C[C@H](O)[C@H](CCCCN)NC(=O)[C@H](NC(=O)C(NC(=O)CC(C)C)C(C)C)C(C)C (stereo partly specified)
pKi (Rhizopuspepsin): 7.48

CCOC(=O)C[C@H](O)[C@H](CCCCNC(C)=O)NC(=O)[C@H](NC(=O)C(NC(=O)CC(C)C)C(C)C)C(C)C (stereo partly specified)
pKi (Rhizopuspepsin): 7.54 | pKi [1]: 7.00 | pKi (Pepsin A): 5.72

CCOC(=O)CC(O)[C@H](CCCN)NC(=O)[C@H](NC(=O)C(NC(=O)CC(C)C)C(C)C)C(C)C (stereo partly specified)
pKi (Rhizopuspepsin): 7.33 | pKi [2]: 8.96

COC(=O)C(Cc1ccccc1)NC(=O)C[C@H](O)[C@H](CCCCN)NC(=O)[C@H](NC(=O)C(NC(=O)CC(C)C)C(C)C)C(C)C (stereo partly specified)
pKi [3]: 10.10

COC(=O)C(Cc1ccccc1)NC(=O)C[C@H](O)[C@H](CC(C)C)NC(=O)[C@@H](NC(=O)[C@@H](NC(=O)CC(C)C)C(C)C)C(C)C (stereo partly specified) (Isovaleryl-VV[Sta][ξF]-OMe)
pKi (Rhizopuspepsin): 7.96 | pKi [3]: 8.89

CCOC(=O)C[C@H](O)[C@H](CC(C)C)NC(=O)[C@@H](NC(=O)[C@@H](NC(=O)CC(C)C)C(C)C)C(C)C (Isovaleryl-Val-Val-[Sta]-OEt)
pKi (Rhizopuspepsin): 7.38 | pKi [1]: 7.33
